pKi: −log10 of the molar value. Entries after “also recorded” stand apart in the source; their conditions may differ. Like-named read-outs stand apart in the source and are kept apart here. Where a SMILES comes first, the peptide text is derived from it. [ ]: non-standard residue; d: D form. Dip = N[C@H](C(=O)O)C(c1ccccc1)c1ccccc1; Cha = N[C@@H](CC1CCCCC1)C(=O)O
Legend:
[1] = target: T1, HCV protease (Hepatitis C virus genotype 1b, UniProt P26663); conditions: read-out: inhibitor of HCV protease (potency); 13 residue substrate spanning P6-P7′; cited from earlier work
[2] = target: T2, HCV NS3 protease, genotype 1a (Hepatitis C virus genotype 1a, UniProt P26664); test: biochemical; assay type: biochemical
T2 construct: NS3 protease catalytic domain (amino acids 1 to 192); MGAQH expression leader (5 aa), or alternatively the 15 aa His tag […]; made in house; host or cells: E. coli BL21 (DE3)
Experimental: Endpoint HPLC based HCV protease assay: HCV protease (5 nM) was incubated in 50 mM Tris pH 7.5, 0.1% maltoside, 5 mM DTT and appropriate amounts of glycerol, NS4A peptide, and substrate. Routine assays were 100 μl in volume containing 15% or 50% glycerol, 5.0 μM NS4A peptide and 5.0 μM substrate. Reactions were run at room temperature (˜22° C.) and quenched by the addition of 4 μl of 10% TFA before 10% of the substrate was consumed. Incubation times were 20 minutes for the ester substrate (Peptide Substrate A) and 80 minutes for the P6-P7′ amide substrate (Peptide Substrate B). […] Incubation times were 90 min. Samples, 50 μl, were injected onto an Hewlett Packard 1090 Liquid Chromatograph containing a Dynamax-60A C18 column. The column was eluted with a linear gradient from 10% acetonitrile to 45% acetonitrile in water. All solvents contained 0.1% TFA. A flow rate of 1 ml/min was used. […] The product peaks were detected by fluorescence excitation at 350 nm and emission at 500 nm.
Continuous fluorescence-based HCV protease assay: This asay was a modified version of method of Taliani (Taliani, M.; et al. Anal. Biochem. 240, 60-67, 1996) using Substrate A (Ac-D-E-D(EDANS)-E-E-Abuψ[COO]-A-S-K(DABCYL)—NH2). Assays were run in a 96-well microtiter plates using a Perkin Elmer Luminescence Spectrometer LS50B exciting at 350 nm (10 nm slit) and emitting at 500 nm (10 nm slit). In a typical assay the protease (1-4 nM) was incubated with 10 μM NS4a peptide in 50 mM Tris pH 7.0, 5.0 mM DTT, 50% glycerol, and […] for 15 min. Catalysis was initiated by the addition of Substrate A (final concentration 5.0 μM). Assays were also run under conditions where 15% glycerol, 0.1% Maltoside were substituted for 50% glycerol and 5% CHAPS. Enzymatic activity was monitored by measuring the increase in fluorescence with time using excitation wavelength of 350 nm and an emission wavelength of 500 nm. Both slit widths were 10 nm. Inhibition constants were determined from a nonlinear least squares fit of the data to the equation Vi/Vo=1/(1+[I]/Kiapp). Where Vi is the velocity measured in the presence of inhibitor (inhibitors were introduced with the NS4a peptide) and Vo is the velocity of controls. The thermodynamic Ki was determined from Kiapparent via the relationship for competitive kinetics: Ki=Kiapp/(1+[S]/Km) where [S] is the substrate concentration.
Footnote a for Table 1 references the assay condiditions: 1) Substrate A=P6-P3′, HCV protease (4.0 nM) was incubated with various concentrations of truncated analogs of Q9692 in 50 mM Tris buffer, pH 7.0, 15% glycerol, 0.1% maltoside, 5 mM DTT and 10 μM NS4A peptide in a 96-well microtiter plate at room temperature. After 15 minutes catalysis was initiated by the addition of Ac-D-E-D(EDANS)-E-E-Abuψ[COO]-A-S-K(DABCYL)—NH2 (final concentration 5.0 μM in a total reaction volume of 200 μl). Enzymatic activity was monitored by measuring the increase in fluorescence with time on a Perkin Elmer LS50B luminescence spectrometer (excitation 350 nm, emission 500 nm, both slits 10 nm). […] Assays were 100 μl in volume, reactions were run at room temperature (˜22 C) for 80 minutes (<10% of the substrate was consumed). The addition of 4 μl of 10% TFA quenched the reactions. Quantitation of hydrolysis products was determined by measuring fluorescent peak areas following HPLC. Products were detected by excitation at 350 nm and measuring emission at 500 nm. Aliquots (50 μl) of quenched enzymatic reactions were injected on an Hewlett Packard 1090 HPLC equipped with a ¼ inch Dynamex 60A C18 column. A linear gradient from 10% acetonitrile:H2O to 45% acetonitrile:H2O was run over a period of 15 min at a flow rate of 1.0 ml/min. All solvents contained 0.1% TFA.

[3] = target: T3, HCV protease (NS3) (Hepatitis C virus genotype 1a, UniProt P26664); assay type: binding
T3 construct: NS3 protease catalytic domain (amino acids 1 to 192); MGAQH expression leader (5 aa), or alternatively the 15 aa His tag MRGSHHHHHHMGAQH; made in house; host or cells: E. coli BL21 (DE3)
Experimental: Intrinsic fluorescence studies: Assays were conducted in 0.5 ml fluorescent cuvettes (0.4 ml total volume). […] Fluorescence spectra were obtained by exiting at 280 nm (10 nm slit) and scanning the emission profile from 300 to 400 nm (10 nm slit) at 1 nm s^−1.
Fluorescence spectrum of HCV protease (0.45 μM) in 50 mM Tris buffer, pH 7.0, containing 15% glycerol, and 0.10% maltoside were measured over a range of 300-400 nm using an excitation wavelength of 280 nm. Both excitation and emission slit widths were 10 nm and the scan rate was 1.0 nm sec^−1.

[4] = target: T2, HCV NS3 protease, genotype 1a; assay type: biochemical; conditions: P6-P3′ ester substrate, NS4a=0, relative to controls without Q9692
[5] = target: T1, HCV protease; conditions: substrate Ac-[…](Edans)—NH2; cited from earlier work
[6] = P6-P3′ ester substrate, 2 μM Q9692

CC(=O)N[C@@H](CC(=O)O)C(=O)N[C@@H](CCC(=O)O)C(=O)N[C@H](C(=O)N[C@@H](CCC(=O)O)C(=O)N[C@@H](CC1CCCCC1)C(=O)N[C@@H](CS)C(=O)O)C(c1ccccc1)c1ccccc1 [Q9692, Ac-Asp-Glu-Dpa-Glu-Cha-Cys—OH] (Ac-DE[Dip]E[Cha]C-OH)
pKi [1]: 7.30 | Dixon plots of 1/V versus Q9717 concentration ([2]; 5 μM substrate spanning P6-P3′): intersecting lines | concentration of maximum stimulation ([2]; P6-P3′ ester substrate): 4 µM | concentrations at which inhibition was observed ([2]; P6-P3′ ester substrate): greater than 10.0 μM | kcat of substrate [2, 6]: relatively unchanged | reduction in Km of substrate [2, 6]: 5 fold | activation of the enzyme (maximum stimulation) ([2]; P6-P3′ ester substrate, maximum at 4 μM Q9692): approximately 5 fold | (S = P6-P3′) Inhibition(+) / Activation (−) ([2]; substrate A): − | further increase in intrinsic fluorescence ([3]; 5.0 μM added after 12.5 μM NS4a): 70% | effect on fluorescence spectrum ([3]; in the absence of NS4a): little effect | effect on intrinsic fluorescence ([3]; in the presence of NS4a): near doubling of intrinsic fluorescence; also recorded: nearly doubles the intrinsic fluorescence; also recorded: large increase in fluorescence | relative activity of the protease [4]: ~1 | pKi [5]: 7.30

— patent US20020102533A1, “Hepatitis C protease exosite for inhibit or design” (priority 2000, published 2002)
